Experiment [1] has as its system C57BL/6J mice. Kind of experiment: Acute single dose 120-min time-course experiment, in vivo glucose reduction in C57BL/6J mice. The arrangement: unit not given here. The conditions noted are these: male C57BL/6J mice, Mean ± SEM. How it is done: All the animal experiments were carried out according to the internationally valid guidelines following approval by the ‘Zydus Research Center animal ethical committee’. […] Two days prior to the study, the animals were randomised and divided into 5 groups (n=6), based upon their fed glucose levels. On the day of experiment, food was withdrawn from all the cages, water was given ad-libitum and were kept for overnight fasting. Vehicle (normal saline)/test/standard compounds were administered intraperitoneally (i.p.) or orally, on a body weight basis. […] Blood samples were centrifuged and the separated serum was immediately subjected for the glucose estimation. Serum for insulin estimation was stored at −70° C. until used for the insulin estimation. The glucose estimation was carried out with DPEC-GOD/POD method (Ranbaxy Fine Chemicals Limited, Diagnostic division, India), using Spectramax-190, in 96-microwell plate reader (Molecular devices Corporation, Sunnyvale, Calif.). […] The AUC and BCAUC obtained from graphs were analyzed for one way ANOVA, followed by Dunnett's post test, using Graph Pad prism software. Furthermore, the insulin estimation was carried out using rat/mouse insulin ELISA kit (Linco research, Mo. USA).

The target of experiment [2] is T1, Human GLP-1 receptor (Homo sapiens, UniProt P43220).
T1 construct: The full-length cDNA was cloned in pcDNA3.1(+); expressed in transfected cells
Type of experiment: cell-based. The conditions noted are these: in vitro, FIG. 4. How it is done: The novel peptidomimetics were screened for Human GLP-1 receptor (HGLP-1 R) agonist activity (in vitro), using the cAMP cell-based assay, in stably transfected CHO/human GLP1R cells. […] CHO cells were grown in Ham's F12 medium containing L-Glutamine (2 mM), HEPES (25 mM), NaHCO3 (1.1 g/L) and supplemented with NewBorn Calf Serum (NBCS; 10%), Penicillin (50 U/ml (v/v)) and Streptomycin (50 ug/ml (v/v)). Cells were split every 3 days 1:8.
The cDNA encoding the human GLP-1 receptor was isolated by RT-PCR according to standard protocol. The full-length cDNA was cloned in pcDNA3.1(+). […] Clones expressing the receptor were generated by G418 (800 μg/ml active, Sigma) selection. The stable clones were thereafter maintained at 500 ug/ml (G418). The selected clone was used between passages 9-25 for cAMP assays.
The trypsin was inactivated using Ham's F12 medium containing 10% NBCS and the cells were suspended in 2 ml of complete medium. […] The medium was aspirated off from the 12 well plate and the cells were washed once using Ham's F12 (plain). […] The cells were incubated with the test compounds for 30 min in humidified atmosphere and 37° C. After the incubation, the medium was removed and cells were washed once with plain Ham's F12. Subsequently, the cells were lysed by adding 500 ul of ice cold 0.1 N HCl to each well and shaking for 30 minutes at 200 rpm. […] The total cAMP was estimated from the sample according to the manufacturer's protocol using Cyclic AMP immunoassay kit (R&D systems, Minneapolis. MN). The remaining supernatant is used to determine the protein concentration using micro BCA (Sigma). Data is calculated as percent of control (Vehicle: water) and expressed as Mean±SD.

T1 sequence (P43220 24-463): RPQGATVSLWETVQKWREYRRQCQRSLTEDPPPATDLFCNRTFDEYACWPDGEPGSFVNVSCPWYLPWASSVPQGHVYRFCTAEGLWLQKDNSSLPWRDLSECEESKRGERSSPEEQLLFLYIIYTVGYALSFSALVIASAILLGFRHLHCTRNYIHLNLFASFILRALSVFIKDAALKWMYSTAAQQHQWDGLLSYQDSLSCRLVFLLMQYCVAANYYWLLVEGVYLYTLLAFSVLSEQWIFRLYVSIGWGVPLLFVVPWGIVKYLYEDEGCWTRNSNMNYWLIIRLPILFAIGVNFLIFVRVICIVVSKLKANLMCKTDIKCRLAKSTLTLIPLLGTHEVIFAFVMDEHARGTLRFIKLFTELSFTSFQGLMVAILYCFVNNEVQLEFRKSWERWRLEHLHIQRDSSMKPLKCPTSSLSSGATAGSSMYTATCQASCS

As for `CCc1cc(OC)ccc1-c1ccc(CC(NC(=O)[C@H](CC(=O)O)NC(=O)[C@H](CO)NC(=O)[C@@H](NC(=O)C(C)(Cc2ccccc2F)NC(=O)[C@@H](NC(=O)CNC(=O)[C@H](CCC(N)=O)NC(=O)[C@H](C)NC(=O)[C@@H](N)Cc2c[nH]cn2)[C@@H](C)O)[C@@H](C)O)C(=O)NC(Cc2ccc(-c3ccccc3C(F)(F)F)cc2)C(N)=O)cc1` (single isomer, unassigned) [Seq. ID. No. 28, HAQGT-(α-Me-2F-Phe)-TSD-Bip(OMe)-Bip(2CF3)], the blood glucose level in experiment [1] (20 nM/kg, i.p, 0 min) stood at 182 ± 2.1; in experiment [1] (20 nM/kg, i.p, 30 min), 121 ± 2.9; in experiment [1] (20 nM/kg, i.p, 60 min) it was 130 ± 3.1; in experiment [1] (20 nM/kg, i.p, 120 min) it was 138 ± 2.4.

`CCc1cc(OC)ccc1-c1ccc(CC(NC(=O)[C@H](CC(=O)O)NC(=O)[C@H](CO)NC(=O)[C@@H](NC(=O)C(C)(Cc2ccccc2F)NC(=O)[C@@H](NC(=O)CNC(=O)[C@H](CCC(N)=O)NC(=O)C2(NC(=O)[C@@H](N)Cc3c[nH]cn3)CC2)[C@@H](C)O)[C@@H](C)O)C(=O)NC(Cc2ccc(-c3ccccc3C(F)(F)F)cc2)C(N)=O)cc1` (single isomer, unassigned) [Seq. ID. No. 36, H-(ACP)-QGT-(α-Me-2F-Phe)-TSD-Bip(OMe)-Bip(2CF3)]: the blood glucose level in experiment [1] (10 nM/kg, i.p, 0 min) was determined as 180 ± 2.8; in experiment [1] (10 nM/kg, i.p, 30 min) it was 110 ± 3.6; in experiment [1] (10 nM/kg, i.p, 60 min) it was 112 ± 2.3; in experiment [1] (10 nM/kg, i.p, 120 min) it was 112 ± 1.6; in experiment [1] (2 μM/kg, oral, 0 min), 183 ± 2.3; in experiment [1] (2 μM/kg, oral, 30 min), 119 ± 3.0. The blood glucose level is on record as 112 ± 4.3 in experiment [1] (2 μM/kg, oral, 60 min) and 109 ± 2.6 in experiment [1] (2 μM/kg, oral, 120 min).

On to `CCc1cc(OC)ccc1-c1ccc(CC(NC(=O)[C@H](CC(=O)O)NC(=O)[C@H](CO)NC(=O)[C@@H](NC(=O)C(C)(Cc2ccccc2F)NC(=O)[C@@H](NC(=O)CNC(=O)[C@H](CCC(N)=O)NC(=O)C(C)(C)NC(=O)[C@@H](N)Cc2c[nH]cn2)[C@@H](C)O)[C@@H](C)O)C(=O)NC(Cc2ccc(-c3ccccc3F)cc2)C(N)=O)cc1` (single isomer, unassigned) [Seq. ID. No. 31, H-Aib-QGT-(α-Me-2F-Phe)-TSD-Bip(OMe)-Bip(2F)], for which the blood glucose level in experiment [1] (10 nM/kg, i.p, 0 min) was 183 ± 2.2; in experiment [1] (10 nM/kg, i.p, 30 min), 113 ± 2.8; in experiment [1] (10 nM/kg, i.p, 60 min), 113 ± 2.9; in experiment [1] (10 nM/kg, i.p, 120 min) it was 114 ± 2.0; in experiment [1] (2 μM/kg, oral, 0 min) it was 185 ± 2.3; in experiment [1] (2 μM/kg, oral, 30 min) it was 115 ± 3.8. Moreover, the blood glucose level in experiment [1] (2 μM/kg, oral, 60 min) came to 113 ± 4.9; in experiment [1] (2 μM/kg, oral, 120 min), 109 ± 2.2.

`CCc1cc(OC)ccc1-c1ccc(CC(NC(=O)[C@H](CC(=O)O)NC(=O)[C@H](CO)NC(=O)[C@@H](NC(=O)C(C)(Cc2ccccc2F)NC(=O)[C@@H](NC(=O)CNC(=O)[C@H](CCC(N)=O)NC(=O)C(C)(C)NC(=O)[C@@H](N)Cc2c[nH]cn2)[C@@H](C)O)[C@@H](C)O)C(=O)NC(Cc2ccc(-c3ccccc3C)cc2)C(N)=O)cc1` (single isomer, unassigned) [Seq. ID. No. 29, H-Aib-QGT-(α-Me-2F-Phe)-TSD-Bip(OMe)-Bip(2Me)]: the blood glucose level in experiment [1] (10 nM/kg, i.p, 0 min) worked out at 180 ± 2.5; in experiment [1] (10 nM/kg, i.p, 30 min) it was 110 ± 2.6; in experiment [1] (10 nM/kg, i.p, 60 min), 111 ± 3.2; in experiment [1] (10 nM/kg, i.p, 120 min) it was 112 ± 2.3; in experiment [1] (2 μM/kg, oral, 0 min), 184 ± 2.5; in experiment [1] (2 μM/kg, oral, 30 min), 115 ± 3.6. Also, the blood glucose level came to 113 ± 4.2 in experiment [1] (2 μM/kg, oral, 60 min) and 110 ± 2.4 in experiment [1] (2 μM/kg, oral, 120 min).

Consider `CCc1cc(OC)ccc1-c1ccc(CC(NC(=O)[C@H](CC(=O)O)NC(=O)[C@H](CO)NC(=O)[C@@H](NC(=O)[C@H](Cc2ccccc2)NC(=O)[C@@H](NC(=O)CNC(=O)[C@H](CCC(N)=O)NC(=O)[C@H](CO)NC(=O)[C@@H](N)Cc2c[nH]cn2)[C@@H](C)O)[C@@H](C)O)C(=O)NC(Cc2ccc(-c3ccccc3C)cc2)C(N)=O)cc1` (single isomer, unassigned) [Seq. ID. No. 5], for which, in experiment [2], the “GLP-1 receptor agonistic activity (in words)” value is given as “GLP-1 receptor agonistic activity”.

For the compound `CCc1cc(OC)ccc1-c1ccc(CC(NC(=O)[C@H](CC(=O)O)NC(=O)[C@H](CO)NC(=O)[C@@H](NC(=O)C(C)(Cc2ccccc2F)NC(=O)[C@@H](NC(=O)CNC(=O)[C@H](CCC(N)=O)NC(=O)C2(NC(=O)[C@@H](N)Cc3c[nH]cn3)CC2)[C@@H](C)O)[C@@H](C)O)C(=O)NC(Cc2ccc(-c3ccccc3C)cc2)C(N)=O)cc1` (single isomer, unassigned) [Seq. ID. No. 33, H-(ACP)-QGT-(α-Me-2F-Phe)-TSD-Bip(OMe)-Bip(2Me)], the blood glucose level in experiment [1] (10 nM/kg, i.p, 0 min) is 181 ± 2.5; in experiment [1] (10 nM/kg, i.p, 30 min), 111 ± 3.4; in experiment [1] (10 nM/kg, i.p, 60 min) it was 113 ± 3.1; in experiment [1] (10 nM/kg, i.p, 120 min), 110 ± 1.8; in experiment [1] (2 μM/kg, oral, 0 min) it was 182 ± 2.5; in experiment [1] (2 μM/kg, oral, 30 min), 116 ± 3.1. Moreover, the blood glucose level is 113 ± 4.1 in experiment [1] (2 μM/kg, oral, 60 min) and 110 ± 2.8 in experiment [1] (2 μM/kg, oral, 120 min).

Take `CCc1cc(OC)ccc1-c1ccc(CC(NC(=O)[C@H](CC(=O)O)NC(=O)[C@H](CO)NC(=O)[C@@H](NC(=O)[C@H](Cc2ccccc2)NC(=O)[C@@H](NC(=O)CNC(=O)[C@H](CCC(N)=O)NC(=O)[C@H](C)NC(=O)[C@@H](N)Cc2c[nH]cn2)[C@@H](C)O)[C@@H](C)O)C(=O)NC(Cc2ccc(-c3ccccc3C(F)(F)F)cc2)C(N)=O)cc1` (single isomer, unassigned) [Seq. ID. No. 12]: the blood glucose level in experiment [1] (50 nM/kg, i.p, 0 min) came to 184 ± 5.0; in experiment [1] (50 nM/kg, i.p, 30 min) it was 122 ± 3.8; in experiment [1] (50 nM/kg, i.p, 60 min), 128 ± 2.1; in experiment [1] (50 nM/kg, i.p, 120 min), 149 ± 2.3.

`CCc1cc(OC)ccc1-c1ccc(CC(NC(=O)[C@H](CC(=O)O)NC(=O)[C@H](CO)NC(=O)[C@@H](NC(=O)C(C)(Cc2ccccc2F)NC(=O)[C@@H](NC(=O)CNC(=O)[C@H](CCC(N)=O)NC(=O)[C@H](CO)NC(=O)[C@@H](N)Cc2c[nH]cn2)[C@@H](C)O)[C@@H](C)O)C(=O)NC(Cc2ccc(-c3ccccc3F)cc2)C(N)=O)cc1` (single isomer, unassigned) [Seq. ID. No. 23, HSQGT-(α-Me-2F-Phe)-TSD-Bip(OMe)-Bip(2F)]: the blood glucose level in experiment [1] (20 nM/kg, i.p, 0 min) was 180 ± 3.1; in experiment [1] (20 nM/kg, i.p, 30 min) it was 122 ± 3.9; in experiment [1] (20 nM/kg, i.p, 60 min), 129 ± 2.2; in experiment [1] (20 nM/kg, i.p, 120 min), 140 ± 2.9.

On to `CCc1cc(OC)ccc1-c1ccc(CC(NC(=O)[C@H](CC(=O)O)NC(=O)[C@H](CO)NC(=O)[C@@H](NC(=O)[C@H](Cc2ccccc2)NC(=O)[C@@H](NC(=O)CNC(=O)[C@H](CCC(N)=O)NC(=O)C2(NC(=O)[C@@H](N)Cc3c[nH]cn3)CC2)[C@@H](C)O)[C@@H](C)O)C(=O)NC(Cc2ccc(-c3ccccc3F)cc2)C(N)=O)cc1` (single isomer, unassigned) [Seq. ID. No. 19, H-(ACP)-QGTFTSD-Bip(OMe)-Bip(2F)], for which the blood glucose level in experiment [1] (30 nM/kg, i.p, 0 min) is 180 ± 3.2; in experiment [1] (30 nM/kg, i.p, 30 min), 119 ± 3.2; in experiment [1] (30 nM/kg, i.p, 60 min), 117 ± 3.1; in experiment [1] (30 nM/kg, i.p, 120 min), 118 ± 1.8.

Values taken from patent US8841413B2, “Antidiabetic compounds” (Cadila Healthcare Limited, priority 2006, dated 2014).
